Reference: ChEMBL document CHEMBL4265965, “Dichloroacetophenones targeting at pyruvate dehydrogenase kinase 1 with improved selectivity and antiproliferative activity: Synthesis and structure-activity relationships” (Bioorg Med Chem Lett, 2018)
Active and inactive are the calls of the source. The calls are words filed in the database; no cut-off is given here.

Assays:
[1] = system: A549; assay: Antiproliferative activity against human A549 cells assessed as inhibition of cell proliferation at 6 uM after 72 hrs by MTT assay relative to control; assay type: functional; settings: for inhibition at 6 µM: A549, 72 h
[2] = system: A549; assay: Antiproliferative activity against human A549 cells assessed as inhibition of cell proliferation at 2 uM after 72 hrs by MTT assay relative to control; assay type: functional; settings: for inhibition at 2 µM: A549, 72 h
[3] = system: NCI-H1975; assay: Antiproliferative activity against human NCI-H1975 cells assessed as inhibition of cell proliferation at 2 uM after 72 hrs by MTT assay relative to control; assay type: functional; settings: for inhibition at 2 µM: NCI-H1975, 72 h
[4] = system: NCI-H1975; assay: Antiproliferative activity against human NCI-H1975 cells assessed as inhibition of cell proliferation at 6 uM after 72 hrs by MTT assay relative to control; assay type: functional; settings: for inhibition at 6 µM: NCI-H1975, 72 h
[5] = molecular target: T1, [Pyruvate dehydrogenase (acetyl-transferring)] kinase isozyme 1, mitochondrial (Homo sapiens, UniProt Q15118); assay: Inhibition of recombinant human N-terminal His6/Sumo-tagged PDK1 (29 to 436 residues) expressed in Escherichia coli BL21 at 1 uM by kinase-glo luminescence assay relative to control
[6] = molecular target: T1, [Pyruvate dehydrogenase (acetyl-transferring)] kinase isozyme 1, mitochondrial; assay: Inhibition of PDK1 in human NCI-H1975 cells assessed as reduction in pyruvate dehydrogenase phosphorylation at 10 uM after 24 hrs by Western blot analysis; assay type: cell-based
[7] = system: NCI-H1975; assay: Antiproliferative activity against human NCI-H1975 cells assessed as inhibition of cell proliferation at 12 uM after 72 hrs by MTT assay relative to control; assay type: functional; settings: for inhibition at 12 µM: NCI-H1975, 72 h
[8] = system: NCI-H1650; assay: Antiproliferative activity against human NCI-H1650 cells assessed as inhibition of cell proliferation at 6 uM after 72 hrs by MTT assay relative to control; assay type: functional; settings: for inhibition at 6 µM: NCI-H1650, 72 h
[9] = system: NCI-H1650; assay: Antiproliferative activity against human NCI-H1650 cells assessed as inhibition of cell proliferation at 12 uM after 72 hrs by MTT assay relative to control; assay type: functional; settings: for inhibition at 12 µM: NCI-H1650, 72 h
[10] = system: A549; assay: Antiproliferative activity against human A549 cells assessed as inhibition of cell proliferation at 12 uM after 72 hrs by MTT assay relative to control; assay type: functional; settings: for inhibition at 12 µM: A549, 72 h
[11] = system: NCI-H1650; assay: Antiproliferative activity against human NCI-H1650 cells assessed as inhibition of cell proliferation at 2 uM after 72 hrs by MTT assay relative to control; assay type: functional; settings: for inhibition at 2 µM: NCI-H1650, 72 h
[12] = species: Sus scrofa; assay: Inhibition of porcine PDK1 assessed as activation of pyruvate dehydrogenase complex at 1 uM measured after 3 mins

SMILES	inhibition at 6 µM [1]	inhibition at 2 µM [2]	inhibition at 2 µM [3]	inhibition at 6 µM [4]	inhibition [5]	inhibition at 12 µM [7]	inhibition at 6 µM [8]	inhibition at 12 µM [9]	inhibition at 12 µM [10]	inhibition at 2 µM [11]	inhibition [12]	inhibition [11]	other results
O=C(c1ccc(OCCCBr)cc1)C(Cl)Cl	80.1%	21.7%	69.8%	99.6%	19.7 to 67.9%	99.9%	65.4%	92.5%	98.4%	27.9%	–	–	inhibition [6]: Active
CCCCCCOc1ccc(C(=O)C(Cl)Cl)cc1[N+](=O)[O-]	33.4%	1.2%	5.7%	51.7%	Active	98.3%	53.1%	99.7%	83.1%	3.6%	Active	–	–
CCOc1ccc(C(=O)C(Cl)Cl)cc1[N+](=O)[O-]	88%	37.8%	62.3%	94.1%	Active	98.2%	88%	99.3%	99%	57.3%	Active	–	–
O=C(c1ccc(OCCCCCBr)c([N+](=O)[O-])c1)C(Cl)Cl	29.4%	6.9%	6.9%	49.8%	Active	99.7%	39.7%	78.6%	69.7%	–	Active	inactive	–
O=C(c1ccc(OCCCCBr)c([N+](=O)[O-])c1)C(Cl)Cl	33.4%	5.7%	15%	54.7%	Active	86.7%	38.8%	66.7%	72.9%	21.8%	Active	–	–
CC(C)Oc1ccc(C(=O)CCl)cc1[N+](=O)[O-]	14.8%	–	–	27.7%	Active	85.6%	24.8%	51.4%	38.9%	–	Active	inactive	inhibition [2]: inactive; inhibition [3]: inactive
O=C(c1cccnc1)C(Cl)(Cl)Cl	–	–	–	–	inactive	–	–	–	–	–	inactive	inactive	inhibition [1]: inactive; inhibition [2]: inactive; inhibition [3]: inactive; inhibition [4]: inactive; inhibition [7]: inactive; inhibition [8]: inactive; inhibition [9]: inactive; inhibition [10]: inactive
O=C(Nc1ccccc1)C(Cl)Cl	14.6%	–	–	21.6%	inactive	30.2%	15.5%	21.3%	20.3%	–	inactive	inactive	inhibition [2]: inactive; inhibition [3]: inactive
O=C(c1ccc(OCCCBr)c([N+](=O)[O-])c1)C(Cl)Cl	84.3%	26.8%	60.8%	94.5%	Active	99%	48.1%	74.6%	97.7%	11.5%	Active	–	–
O=C(c1cccs1)C(Cl)Cl	34.7%	6.9%	26.8%	62.1%	inactive	95.8%	42.5%	73.4%	71.1%	16.8%	3.9%	–	–
O=C(CCl)c1cccnc1	–	–	–	–	inactive	–	–	–	–	–	inactive	inactive	inhibition [1]: inactive; inhibition [2]: inactive; inhibition [3]: inactive; inhibition [4]: inactive; inhibition [7]: inactive; inhibition [8]: inactive; inhibition [9]: inactive; inhibition [10]: inactive
O=C(c1ccco1)C(Cl)Cl	35.8%	8.9%	31.2%	58.6%	inactive	94.5%	48.9%	85.7%	79.8%	21.4%	2.5%	–	–
O=C(c1ccc(OCCBr)c([N+](=O)[O-])c1)C(Cl)Cl	24.5%	9.5%	15.2%	53.2%	Active	80%	–	23%	63.7%	–	Active	inactive	inhibition [8]: inactive
CCCCCOc1ccc(C(=O)C(Cl)Cl)cc1[N+](=O)[O-]	80.2%	32.3%	62.9%	93.2%	Active	98.1%	36.6%	68%	96.9%	–	Active	inactive	–
COc1ccc(C(=O)C(Cl)Cl)cc1[N+](=O)[O-]	46.7%	17.7%	22.3%	89.4%	Active	97.4%	75.7%	97.2%	81.8%	30%	Active	–	–
O=C(c1ccncc1)C(Cl)Cl	6.6%	2.1%	2.29%	41.6%	inactive	91.7%	34.4%	80.3%	21.3%	15.6%	8.9%	–	–
